According to patent US20020025983A1, “Vitamin K and essential fatty acids” (priority 2000, published 2002):

Columns and labels:
women with osteoporosis = details: 45 mg/day; cited from earlier work
[1] = test system: person with atopic dermatitis and with mild premenstrual syndrome; experiment: Case report: person with atopic dermatitis and mild premenstrual syndrome given EPO, vitamin K1, then EPO again; format: in vivo, human; details: vitamin K1 supplements alone
Excerpt: A person with atopic dermatitis and with mild premenstrual syndrome was recommended to take 3 g/day of evening primrose oil (EPO). EPO is a widely used nutritional supplement for these problems. It contains about 70% of linoleic acid, but more importantly contains 8-12% of GLA which can by-pass a block in the conversion of linoleic acid to GLA which can occur in many situations, including atopic dermatitis, stress and menstrual disorders. […] As an experiment they were then cautiously given EPO again.

[2] = test system: person with severe menstrual cramps and mild premenstrual syndrome; experiment: Case report: person with severe menstrual cramps and mild premenstrual syndrome given EPO and fish oil, vitamin K1, then EPO and fish oil again; format: in vivo, human; details: vitamin K1 supplement 2 mg (2000 μg) per day for a month, alone
Experimental: A second person presented with severe menstrual cramps and mild premenstrual syndrome. […] They therefore took 2 mg (2000 μg) per day of a vitamin K1 supplement for a month which also had no effect on their menstrual problems.

Row | Compound | progressive loss of bone mineral density (women with osteoporosis) | risk of bone fractures (women with osteoporosis) | improvement of skin or premenstrual syndrome [1] | vitamin K deficiency [1] | effect on menstrual problems [2]
1 | menaquinones [vitamin K2] | slow down but not prevent | could reduce the risk of bone fractures | – | – | –
2 | CC1=C(C/C=C(\C)CCC[C@H](C)CCC[C@H](C)CCCC(C)C)C(=O)c2ccccc2C1=O [vitamin K1, phylloquinone] | – | – | did not improve | corrected | no effect
